{"source": "a compilation of properties of binary mixtures (doi:10.1021/acs.jpcb.6b06974)", "assay": "xn = mol fraction of the nth substance listed", "details": "101 kPa"}
{"compound": "CCCCCC[n+]1ccn(C)c1.O=S(=O)([N-]S(=O)(=O)C(F)(F)F)C(F)(F)F", "note": "+ ClC(Cl)Cl", "values": [{"measurement": "electrical conductivity", "setting": "288.5 K, x1 = 0.018", "value": 0.021, "unit": "S/m"}, {"measurement": "electrical conductivity", "setting": "288.5 K, x1 = 0.137", "value": 0.302, "unit": "S/m"}, {"measurement": "electrical conductivity", "setting": "288.5 K, x1 = 0.297", "value": 0.46, "unit": "S/m"}, {"measurement": "electrical conductivity", "setting": "288.5 K, x1 = 0.604", "value": 0.255, "unit": "S/m"}, {"measurement": "electrical conductivity", "setting": "288.5 K, x1 = 0.713", "value": 0.211, "unit": "S/m"}, {"measurement": "electrical conductivity", "setting": "288.5 K, x1 = 0.848", "value": 0.169, "unit": "S/m"}, {"measurement": "electrical conductivity", "setting": "288.5 K, x1 = 0.911", "value": 0.153, "unit": "S/m"}, {"measurement": "electrical conductivity", "setting": "288.5 K, x2 = 0.014", "value": 0.137, "unit": "S/m"}, {"measurement": "electrical conductivity", "setting": "298.2 K, x1 = 0.034", "value": 0.076, "unit": "S/m"}, {"measurement": "electrical conductivity", "setting": "298.2 K, x1 = 0.167", "value": 0.477, "unit": "S/m"}, {"measurement": "electrical conductivity", "setting": "298.2 K, x1 = 0.256", "value": 0.582, "unit": "S/m"}, {"measurement": "electrical conductivity", "setting": "298.2 K, x1 = 0.379", "value": 0.524, "unit": "S/m"}, {"measurement": "electrical conductivity", "setting": "298.2 K, x1 = 0.562", "value": 0.369, "unit": "S/m"}, {"measurement": "electrical conductivity", "setting": "298.2 K, x1 = 0.732", "value": 0.295, "unit": "S/m"}, {"measurement": "electrical conductivity", "setting": "298.2 K, x1 = 0.87", "value": 0.245, "unit": "S/m"}, {"measurement": "electrical conductivity", "setting": "298.2 K, x1 = 0.924", "value": 0.233, "unit": "S/m"}, {"measurement": "electrical conductivity", "setting": "298.2 K, x1 = 0.962", "value": 0.221, "unit": "S/m"}, {"measurement": "electrical conductivity", "setting": "298.2 K, x2 = 0.008", "value": 0.213, "unit": "S/m"}, {"measurement": "electrical conductivity", "setting": "308.2 K, x1 = 0.019", "value": 0.04, "unit": "S/m"}, {"measurement": "electrical conductivity", "setting": "308.2 K, x1 = 0.123", "value": 0.501, "unit": "S/m"}, {"measurement": "electrical conductivity", "setting": "308.2 K, x1 = 0.214", "value": 0.686, "unit": "S/m"}, {"measurement": "electrical conductivity", "setting": "308.2 K, x1 = 0.318", "value": 0.701, "unit": "S/m"}, {"measurement": "electrical conductivity", "setting": "308.2 K, x1 = 0.4", "value": 0.652, "unit": "S/m"}, {"measurement": "electrical conductivity", "setting": "308.2 K, x1 = 0.585", "value": 0.431, "unit": "S/m"}, {"measurement": "electrical conductivity", "setting": "308.2 K, x1 = 0.807", "value": 0.378, "unit": "S/m"}, {"measurement": "electrical conductivity", "setting": "308.2 K, x1 = 0.905", "value": 0.327, "unit": "S/m"}, {"measurement": "electrical conductivity", "setting": "308.2 K, x1 = 0.949", "value": 0.336, "unit": "S/m"}, {"measurement": "electrical conductivity", "setting": "308.2 K, x2 = 0.015", "value": 0.326, "unit": "S/m"}, {"measurement": "electrical conductivity", "setting": "318.5 K, x1 = 0.03", "value": 0.072, "unit": "S/m"}, {"measurement": "electrical conductivity", "setting": "318.5 K, x1 = 0.2", "value": 0.785, "unit": "S/m"}, {"measurement": "electrical conductivity", "setting": "318.5 K, x1 = 0.247", "value": 0.835, "unit": "S/m"}, {"measurement": "electrical conductivity", "setting": "318.5 K, x1 = 0.446", "value": 0.788, "unit": "S/m"}, {"measurement": "electrical conductivity", "setting": "318.5 K, x1 = 0.684", "value": 0.55, "unit": "S/m"}, {"measurement": "electrical conductivity", "setting": "318.5 K, x1 = 0.815", "value": 0.529, "unit": "S/m"}, {"measurement": "electrical conductivity", "setting": "318.5 K, x1 = 0.92", "value": 0.479, "unit": "S/m"}]}
